Experimental data reported in article PMC7911516, “Investigation of the Factors Responsible for the Poor Oral Bioavailability of Acacetin in Rats: Physicochemical and Biopharmaceutical Aspects” (Pharmaceutics, 2021).

Tested on: rat CYP2C
Assay: Disappearance in RLM with CYP isoform-selective inhibitor SPZ
Format: in vitro ADME
Conditions: acacetin 20 μM, 10-μM SPZ, NADPH, 5 min
Protocol: To investigate hepatic phase I enzymes- and UGT-dependent metabolism of acacetin, the disappearance rate of acacetin at concentrations of 1–200 µM in RLM was measured in the presence of both NADPH and UDPGA. The substrate (acacetin) concentration ((S); µM) versus the initial metabolic rate (V; nmol/min/mg protein) profiles were interpreted based on Michaelis–Menten kinetics, and relevant parameters were estimated via nonlinear regression analysis (GraphPad Prism ver. 5.01; GraphPad Software, San Diego, CA, USA) using the following Michaelis–Menten equation: V = Vmax× [S]/Km× [S] where Km and Vmax are the Michaelis–Menten constant and maximal metabolic rate, respectively. The unbound intrinsic metabolic clearance (CLint) was calculated as Vmax/(Km × fuMIC). Furthermore, the disappearance of acacetin (20 μM) in the absence or presence of specific CYP isoform-selective inhibitors in RLM was determined to study the hepatic CYP-mediated metabolism of acacetin. Microsomal incubation mixtures (total volume of 200 μL) were prepared as follows: RLM (0.5 mg/mL microsomal protein), 1 mM NADPH, 10 mM MgCl2, 50 mM potassium phosphate buffer, acacetin, with or without CYP isoform-selective inhibitors (10 μM NF for rat CYP1A, 10-μM SPZ for rat CYP2C, 10-μM QND for rat CYP2D, and 10-μM KCZ for rat CYP3A). […]

COc1ccc(-c2cc(=O)c3c(O)cc(O)cc3o2)cc1 [acacetin, Acacetin]
Reduction of relative disappearance rate in presence of SPZ: 25.8%
